Assay results reported in article PMC11578313, “Miniaturized Modular Click Chemistry‐enabled Rapid Discovery of Unique SARS‐CoV‐2 M^pro Inhibitors With Robust Potency and Drug‐like Profile” (Advanced Science, 2024).
Like-named read-outs stand apart in the source and are kept apart here.

Assays:
[1] = tested on: HCoV‐229E; assay: microbe, parasite or virus in culture; format: cell-based; details: Human coronavirus 229E, MRC5, read-out: EC50 ± SD, HCoV‐229E
[2] = in vitro; details: African green monkey
[3] = in vitro; details: human
[4] = tested on: SARS‐CoV‐2 (hCoV‐19/Korea/KCDC06/2020, wild type); assay: microbe, parasite or virus in culture; format: cell-based
[5] = in vitro; details: rhesus monkey
[6] = tested on: MERS‐CoV; assay: microbe, parasite or virus in culture; format: cell-based; details: Middle East respiratory syndrome-related coronavirus, Huh-7, read-out: EC50 ± SD, MERS‐CoV
[7] = in vivo; details: ICR, mouse, po, p.o. 10 mg kg^−1 with 20 mg kg^−1 ritonavir, ICR mice, n = 3
[8] = tested on: SARS‐CoV‐2 Gamma (hCoV‐19/Korea/KDCA95637/2021); assay: microbe, parasite or virus in culture; format: cell-based; details: Severe acute respiratory syndrome coronavirus 2; Calu‐3; read-out: EC50 ± SD, SARS‐CoV‐2 Gamma
[9] = in vitro; details: human; remark: listed apart in the source
[10] = tested on: SARS‐CoV‐2 Delta (hCoV‐19/Korea/KDCA119861/2021); assay: microbe, parasite or virus in culture; format: cell-based; details: Severe acute respiratory syndrome coronavirus 2; Calu‐3; read-out: EC50 ± SD, SARS‐CoV‐2 Delta
[11] = tested on: HCoV‐NL63; assay: microbe, parasite or virus in culture; format: cell-based; details: Human coronavirus NL63, LLC-MK2, read-out: EC50 ± SD, HCoV‐NL63
[12] = tested on: MRC‐5 cells; details: human
[13] = tested on: HCoV‐OC43; assay: microbe, parasite or virus in culture; format: cell-based; details: Betacoronavirus 1, OC43, MRC5, read-out: EC50 ± SD, HCoV‐OC43
[14] = tested on: SARS‐CoV‐2; assay: microbe, parasite or virus in culture; format: cell-based; details: Severe acute respiratory syndrome coronavirus 2, Vero
[15] = tested on: SARS‐CoV‐2 Omicron (hCoV‐19/Korea/KDCA447321/2021); assay: microbe, parasite or virus in culture; format: cell-based; details: Severe acute respiratory syndrome coronavirus 2, Calu-3, read-out: EC50 ± SD, SARS‐CoV‐2 Omicron

CC(C)(C)[C@H](NC(=O)C(F)(F)F)C(=O)N1C[C@H]2[C@@H]([C@H]1C(=O)N[C@H](C#N)C[C@@H]1CCNC1=O)C2(C)C [Nirmatrelvir, reference compound]
EC50 [1]: 378 nM
CC50 at 2 day [2]: > 100000 nM
CC50 [3]: > 100000 nM
CC50 at 2 day ([3]; CC50 (Table 3), Calu‐3 cells): > 100000 nM
CC50 at 2 day ([3]; CC50, Calu‐3 cells, MTT assay): > 100000 nM
EC50 ([4]; Severe acute respiratory syndrome coronavirus 2, Calu-3, read-out: EC50, anti‐SARS‐CoV‐2 activity in Calu‐3 cells (Figure 3B)): 1950 nM
EC50 ([4]; Severe acute respiratory syndrome coronavirus 2, Calu-3, read-out: EC50 ± SD, Calu‐3 cells, with P‐gp inhibitor): < 46 nM
EC50 ([4]; Severe acute respiratory syndrome coronavirus 2, Calu-3, read-out: EC50 ± SD, Calu‐3 cells, without P‐gp inhibitor): 1000 ± 31 nM
EC50 ([4]; Severe acute respiratory syndrome coronavirus 2, Calu-3, read-out: EC50 ± SD, SARS‐CoV‐2 Wild‐type): 2780 nM
CC50 [5]: > 100000 nM
EC50 [6]: 58 nM
Cmax ([7]; 10 mg/kg, Cmax, p.o. in combination with ritonavir): 7450 ± 715 ng/mL
MRT ([7]; 10 mg/kg, MRT0‐t, p.o. in combination with ritonavir): 1.55 ± 0.051 h
MRT ([7]; 10 mg/kg, MRT0‐∞, p.o. in combination with ritonavir): 1.55 ± 0.055 h
half-life ([7]; 10 mg/kg, t1/2, p.o. in combination with ritonavir): 0.692 ± 0.204 h
AUC ([7]; AUC0‐t, p.o. in combination with ritonavir): 14600 ng·h/mL
EC50 [8]: 3430 ± 519 nM
CC50 [9]: > 100000 nM
EC50 [10]: 3700 ± 598 nM
EC50 [11]: > 100000 nM
CC50 [12]: > 100000 nM
EC50 [13]: < 46 nM
EC50 ([14]; read-out: EC50 ± SD, Vero cells, with P‐gp inhibitor): < 46 nM
EC50 ([14]; read-out: EC50 ± SD, Vero cells, without P‐gp inhibitor): 2080 ± 214 nM
EC50 [15]: 3390 ± 245 nM
